Reference: patent US7455984B2, “Immunoreactive and immunotherapeutic molecules” (The Walter and Eliza Hall Institute of Medical Research, priority 1995, dated 2008)

Test system: Peripheral blood mononuclear cells from IDDM at-risk and HLA-DR matched control subjects
Assay: T-cell proliferation assay ([3H]thymidine incorporation, delta score), ten HLA-DR matched pairs
Type: cell-based, human
Conditions: for Reactivity (T-cell proliferation) by subject group: IDDM at-risk and control subjects, ten pairs; for Delta Score, Mean: mean of 10 subjects; for T-cell proliferative response, IDDM at-risk versus control subjects: highest concentration of peptide, Wilcoxon one-tailed paired analysis (proinsulin p<0.008; GAD p<0.018)

| Sequence | Reactivity (T-cell proliferation) by subject group | Delta Score, Mean (GAD 0.4 μg/ml, At Risk, Wilcoxon one-tailed P 0.199 vs Control) [cpm] | Delta Score, Mean (GAD 0.4 μg/ml, Control) [cpm] | Delta Score, Mean (GAD 2 μg/ml, At Risk, Wilcoxon one-tailed P 0.199 vs Control) [cpm] | Delta Score, Mean (GAD 2 μg/ml, Control) [cpm] | Delta Score, Mean (GAD 10 μg/ml, At Risk, Wilcoxon one-tailed P 0.018 vs Control) [cpm] | Delta Score, Mean (GAD 10 μg/ml, Control) [cpm] | T-cell proliferative response, IDDM at-risk versus control subjects | Delta Score, Mean (Proinsulin 0.4 μg/ml, At Risk, Wilcoxon one-tailed P 0.054 vs Control) [cpm] | Delta Score (Proinsulin 0.4 μg/ml, Control subject of each pair) [cpm] | Delta Score, Mean (Proinsulin 0.4 μg/ml, Control) [cpm] | Delta Score, Mean (Proinsulin 2 μg/ml, At Risk, Wilcoxon one-tailed P 0.125 vs Control) [cpm] | Delta Score, Mean (Proinsulin 2 μg/ml, Control) [cpm] | Delta Score, Mean (Proinsulin 10 μg/ml, At Risk, Wilcoxon one-tailed P 0.008 vs Control) [cpm] | Delta Score, Mean (Proinsulin 10 μg/ml, Control) [cpm] |
| --- | --- | --- | --- | --- | --- | --- | --- | --- | --- | --- | --- | --- | --- | --- | --- |
| CRFDPQFALTNIAVRK [unrelated control peptide, irrelevant control peptide (Macromolecular Resources, Fort Collins, Colo.), reference compound] | no subject reacted | – | – | – | – | – | – | – | – | – | – | – | – | – | – |
| FWYIPPSLRTLED [GAD, synthetic 13-mer peptide of human GAD 65, amino acid residues 506-518] | some controls also responded | 135.3 | 34.1 | 133.0 | 178.2 | 1042.4 | 318.1 | greater among IDDM at-risk than control subjects | – | – | – | – | – | – | – |
| FFYTPKTRREAED [Proinsulin, synthetic 13-mer peptide of human proinsulin, amino acid residues 24-36] | confined almost entirely to IDDM at-risk subjects | – | – | – | – | – | – | greater among IDDM at-risk than control subjects | 136.0 | 0 | 0 | 251.1 | 45.8 | 558.7 | 27.6 |
